Where “and” joins values, the source holds several entries; their conditions need not be identical. Equal entries are not always repeated. Where two headings read alike, the source gives them in different places. One block for each compound: values may come before it.
How the values were obtained:
[1] = in vivo; cited from earlier work
liver [2] = conditions: in vivo; cited from earlier work
bone [3] = conditions: pig, in vivo
Procedure: (§1) Studies to determine the qualitative biodistribution of the various radionuclides were conducted by injecting the compositions into miniature pigs having melanotic lesions, which occur spontaneously. ^67 Ga-citrate was used as the control and was given by the same route of administration as the test samples.
(§2) Each injected solution was from 0.5-1 mL having 1-2 mCi of ^153 Sm present.
(§3) Images of each pig (right lateral, left lateral and dorsal) were taken at 4, 24, 48 and 72 hours. The 24 hour images were evaluated independently by 3 investigators using the following scheme for the uptake of ^153 Sm in various tissues:
1=Slight uptake (negligible)
2=Moderate uptake (intermediate)
(§4) The tissues evaluated were bone, liver and tumor.

liver [4] = conditions: pig, in vivo
Procedure: as §1, §2, §3
1=Slight uptake (negligible)
2=Moderate uptake (intermediate)
as §4

bone [5] = assay: Bone uptake, scored from images of miniature pigs by 3 investigators; conditions: average score (0-3) of 3 investigators; head 72 hr, text 24 hour images; one value per pig
Procedure: as §1, §2, §3
1=Slight uptake (negligible)
2=Moderate uptake (intermediate)
as §4

non-target tissues = conditions: in vivo; cited from earlier work
liver [6] = assay: Liver uptake, scored from images of miniature pigs by 3 investigators
Procedure: as §1, §2, §3
1=Slight uptake (negligible)
2=Moderate uptake (intermediate)
as §4

[7] = in vivo; cited from earlier work; remark: listed apart in the source
[8] = Whole body retention in miniature pigs having naturally occurring melanomic lesions
Procedure: as §1
Each injected solution was from 0.5-1 mL having 1-2 mCi of ^153 Sm present. Each pig had whole body counts immediately after injection and again at 24, 48 and 72 hours.
as §3

tumor = assay: Tumor uptake, scored from images of miniature pigs having melanomic lesions by 3 investigators; conditions: for Tumor Uptake (Location): average score (0-3) of 3 investigators
Procedure: as §1, §2, §3
1=Slight uptake (negligible)
2=Moderate uptake (intermediate)
as §4

Ehrlich tumors = conditions: animals bearing Ehrlich tumors; cited from earlier work

Compound: O=C([O-])CN(CCN(CC(=O)[O-])CC(=O)[O-])CCN(CC(=O)[O-])CC(=O)[O-].[99Tc+4] [^99m Tc-DTPA]
elimination of the radionuclide [1]: eliminated from the body by the kidneys into the urine
tissue localization of the radionuclide [1]: does not result in the radionuclide localizing in any tissue

Compound: [Cl][153Sm]([Cl])[Cl] [^153 Sm-chloride]
liver uptake (liver [2]): high liver uptake

Compound: ^153 Sm-citrate
liver uptake (liver [2]): high liver uptake

Bone Uptake (72 hr) (bone [3]): 3.00
Liver Uptake (72 hrs) (liver [4]): 1.00
Compound: CC(=O)Nc1cc(CN(CC(=O)O)CC(=O)O)c(O)c(CN(CC(=O)O)CC(=O)O)c1.[153Sm+3] [Example 1]

Bone Uptake (72 hr) (bone [5]): 1.00
Liver Uptake (72 hrs) (liver [6]; average score (0-3) of 3 investigators, head 72 hrs, text 24 hour images, one value per pig): 3.00
liver uptake (liver [6]; miniature pigs, in words): unacceptably large liver uptake
clearance of the extra-cellular fluid ([8]; in words): never cleared the extra-cellular fluid
Tumor Uptake (Location) (tumor; Draining node): 1.67
Tumor Uptake (Location) (tumor; Left head): 3.00
Tumor Uptake (Location) (tumor; Left sacrum): 0.00
Tumor Uptake (Location) (tumor; Right head): 0.33
Tumor Uptake (Location) (tumor; Right stifle): 2.00
Tumor Uptake (Location) (tumor; Right thorax): 3.00
Compound: O=C([O-])CC(O)(CC(=O)[O-])C(=O)[O-].[67Ga+3] [B]
uptake in non-target tissues (non-target tissues): high uptake
rate of blood clearance [7]: slow
% Whole Body Retention (72 hrs.) ([8]; 72 hrs, L/M ratio 20 (A), 257 (1), one value per pig): 98.5 % of injected dose and 96.7 % of injected dose and 97.1 % of injected dose
tumor image (tumor; miniature pigs, relative to background radiation): almost indistinguishable from the high background radiation

Compound: ^99m Tc-ethylenediaminediacetic acid
imaging of tumors (Ehrlich tumors): could be used to image tumors

Reference: patent US5308606A, “Method of treating and/or diagnosing soft tissue tumors” (priority 1991, dated 1994)
